Measurements taken from US20160122386A1, “V1A RECEPTOR AGONISTS” (FERRING B.V., priority 2014, published 2016).
Read-outs that look alike come from different tables or passages of the source. One block for each compound: values may come before it. Starred links: 1 amine or outer side, 2 acyl side, 3 side chain; linkers in the order of their positions; H or OH if unused. Positions of bridges follow the written chain, without caps; N, C: chain ends. Non-standard residues stand in square brackets, D forms with d. Residues, ends and D or L forms follow the SMILES beside them. Chains are numbered I, II in the order given. *: point of attachment. Phe(4-Cl) = N[C@@H](Cc1ccc(Cl)cc1)C(=O)O; isoGln = NC(=O)[C@H](CCC(=O)[*:2])N[*:1]; d(εLys) = N[C@H](CCCCN[*:1])C(=O)[*:2]; εLys = N[C@@H](CCCCN[*:1])C(=O)[*:2]; 3Pal = N[C@@H](Cc1cccnc1)C(=O)O; Orn = NCCC[C@H](N)C(=O)O; Dab = NCC[C@H](N)C(=O)O; PhAc = O=C(Cc1ccccc1)*

Target: T1, human V1aR (Homo sapiens, UniProt P37288)
T1 construct: expressed in transfected cells
T1 sequence (P37288 whole entry): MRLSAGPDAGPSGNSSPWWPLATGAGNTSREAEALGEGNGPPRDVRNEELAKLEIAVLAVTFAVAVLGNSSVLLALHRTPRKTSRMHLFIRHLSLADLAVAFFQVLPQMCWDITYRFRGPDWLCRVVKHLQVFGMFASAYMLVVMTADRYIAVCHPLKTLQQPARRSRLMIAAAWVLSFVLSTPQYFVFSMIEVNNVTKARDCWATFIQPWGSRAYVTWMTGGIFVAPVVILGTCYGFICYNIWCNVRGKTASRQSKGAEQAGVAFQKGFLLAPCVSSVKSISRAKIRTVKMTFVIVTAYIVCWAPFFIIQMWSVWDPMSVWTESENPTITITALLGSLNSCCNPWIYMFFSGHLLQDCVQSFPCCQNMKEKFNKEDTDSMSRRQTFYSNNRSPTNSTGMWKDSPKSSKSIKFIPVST
Test: Agonist activity at vasopressin V1a receptors, cell-based FLIPR calcium assay
Settings: for Emax: read-out: Efficacy Avg. (%)
Description: Efficacy (% MPE) is also determined as the percentage of maximal possible effect. This agonist assay utilizes cells from a stable cell line (HEK-flpin) expressing the vasopressin V1a receptor. Intracellular calcium increase in response to agonist is measured through real-time fluorescence of an intracellular calcium-sensitive dye. Cells are exposed to varying concentrations of test agonist compounds whereupon release of intracellular calcium is measured to determine the agonist potency and efficacy.
The cell line stably expresses the lacZ-Zeocin™ fusion gene and is designed for use with the Flp-In™ expression vector containing the gene of interest and the Flp recombinase expression plasmid, pOG44. The cell line contains a single integrated Flp Recombination Target (FRT) site from pFRT/lacZeo or pFRT/lacZeo2. To generate the HEK-flpin cell line stably expressing the human V1aR, the cells were co-transfected with the Flp-In™ expression vector containing the gene of interest (pcDNA5/FRT-hV1aR) and the Flp recombinase expression plasmid pOG44. Flp recombinase mediates insertion of the Flp-In™ expression vector into the genome at the integrated FRT site through site-specific DNA recombination. Stable cell lines expressing the hV1aR from the Flp-In™ expression vector can be generated by selection using hygromycin B. See Life Technologies/Invitrogen manual, Growth and Maintenance of Flp-In™ Cell Lines, Version E, published Feb.
Efficacy of this compound was set to be 100%. A stock solution of 5 mM was made up in DMSO and stored at −20° C.
HEK-flpin-hV1aR, cmcqV1aR, dV1aR and pV1aR cells were maintained in DMEM containing 10% (v/v) FBS-HI, 4 mM GlutaMAX™-I, 25 μg/mL Hygromycin B at 37° C. under 5% CO2 in a humidified atmosphere. Subculture was achieved by splitting semi-confluent cultures 1:3 to 1:6.
All compounds were made up in 100% DMSO at 10 mM stock concentrations and stored at −20° C. The compounds were allowed to thaw just before the assay. […] Typical dilution procedure of 10× final assay concentration involved a 1:100 top dilution (e.g., 2 μl Stock into 198 μl dilution medium) followed by half-log serial dilutions (e.g., 25.3 μl into 54.7 μl dilution medium supplemented with 1% DMSO (v/v)). (Dilution media consisted of phenol-red free DMEM containing 10% FBS-HI, 4 mM GlutaMAX™-I). […] The final DMSO concentration in the assay was 0.1%.
Loading Buffer was prepared by dissolving 1 vial of Calcium 4 Assay reagent in 100 mL of 1× HBSS-20 mM Hepes buffer.
The cells were loaded with Loading Buffer as follows. Cell plates were removed from the incubator and 20 μl of Loading Buffer containing probenecid (2.5 mM) was added to each well. The cells were incubated for 1 hr at 37° C. under 5% CO2 in a humidified atmosphere. The calcium image was obtained as follows.
The cell plates were transferred to FLIPR Tetra, along with a 384 well V-bottom plate pre-loaded with half-log concentrations of test compounds at 10× final test concentrations. The remaining steps of the assay were carried forward by FLIPR Tetra. A baseline reading was taken at 1-second (s) intervals for 5s followed by the addition of 5 μl of 10× compounds (test, reference, or Blank). The agonist-induced fluorescence signal was then measured for 180 s with initial 120 readings at 1-second intervals followed by 20 readings at 3-second intervals. Overall, each well in the FLIPR assay was composed of the following components in a total volume of 50 μl: 20 μl cells; 20 μl Calcium 4 Loading Buffer; […] 10× test or reference compound.

[1] = HEK-flpin cells stably expressing hV1aR, intracellular calcium fluorescence, averaged, read-out: EC50 (Avg)

EC50 [1]: 2.5 nM | Emax: 50%
Compound: CC[C@H](C)[C@@H]1NC(=O)[C@H](Cc2ccccc2)NC(=O)[C@@H](N)CSSC[C@@H](C(=O)N2CCC[C@H]2C(=O)N[C@@H](CCCNCCCCCCNC(=O)CC[C@H](NC(=O)[C@H](CCCNC(=N)N)NC(=O)[C@@H]2CCCN2C(=O)[C@H](C)NC(=O)[C@H](CC(N)=O)NC(=O)[C@H](CCC(N)=O)NC(=O)[C@H](Cc2ccccc2)NC(=O)[C@@H](Cc2ccc(OC)cc2)NC(=O)C2CCCCC2)C(N)=O)C(=O)NCC(N)=O)NC(=O)[C@H](CC(N)=O)NC(=O)[C@H](CCC(N)=O)NC1=O [Compound 19]

Compound: CC[C@H](C)[C@@H]1NC(=O)[C@H](Cc2ccccc2)NC(=O)[C@@H](N)CSSC[C@@H](C(=O)N2CCC[C@H]2C(=O)N[C@@H](CCNC(=O)[C@H](N)CCCCNC(=O)CC[C@H](NC(=O)[C@H](CCCNC(=N)N)NC(=O)[C@@H]2CCCN2C(=O)[C@H](C)NC(=O)[C@H](CC(N)=O)NC(=O)[C@H](CCC(N)=O)NC(=O)[C@H](Cc2ccccc2)NC(=O)[C@@H](Cc2ccc(OC)cc2)NC(=O)Cc2ccccc2)C(N)=O)C(=O)NCC(N)=O)NC(=O)[C@H](CC(N)=O)NC(=O)[C@H](CC(N)=O)NC1=O [Compound 60] (I: H-CFINNCP[Dab]G-NH2 / II: PhAc-[dY](Me)FQNAPR[isoGln][d(εLys)]; disulfide I:1-I:6; amide I:8-II:C)
EC50: 2.3 nM | Emax: 42%

Compound: CC[C@H](C)[C@@H]1NC(=O)[C@H](Cc2ccccc2)NC(=O)[C@@H](N)CSSC[C@@H](C(=O)N2CCC[C@H]2C(=O)N[C@@H](CCCNC(=O)[C@@H](N)CCCCNC(=O)CC[C@H](NC(=O)[C@H](CCCNC(=N)N)NC(=O)[C@@H]2CCCN2C(=O)[C@H](CCCNC(=N)N)NC(=O)[C@H](CC(N)=O)NC(=O)[C@H](CCC(N)=O)NC(=O)[C@H](Cc2ccccc2)NC(=O)[C@H](Cc2ccc(Cl)cc2)NC(=O)Cc2ccccc2)C(N)=O)C(=O)NCC(N)=O)NC(=O)[C@H](CC(N)=O)NC(=O)[C@H](CCC(N)=O)NC1=O [Compound 27] (I: H-CFIQNCP[Orn]G-NH2 / II: PhAc-[Phe(4-Cl)]FQNRPR[isoGln][εLys]; disulfide I:1-I:6; amide I:8-II:C)
EC50: 1 nM | Emax: 70%

EC50 [1]: 1.5 nM | Emax: 47%
Compound: CC[C@H](C)[C@@H]1NC(=O)[C@H](Cc2ccccc2)NC(=O)[C@@H](N)CSSC[C@@H](C(=O)N2CCC[C@H]2C(=O)N[C@@H](CCCNCCCCCCNC(=O)CC[C@H](NC(=O)[C@H](CCCNC(=N)N)NC(=O)[C@@H]2CCCN2C(=O)[C@H](C)NC(=O)[C@H](CC(N)=O)NC(=O)[C@H](CCC(N)=O)NC(=O)[C@H](Cc2ccccc2)NC(=O)[C@@H](Cc2ccc(OC)cc2)NC(=O)CC(C)C)C(N)=O)C(=O)NCC(N)=O)NC(=O)[C@H](CC(N)=O)NC(=O)[C@H](CCC(N)=O)NC1=O [Compound 21]

Compound: CC[C@H](C)[C@@H]1NC(=O)[C@H](Cc2ccccc2)NC(=O)[C@@H](N)CSSC[C@@H](C(=O)N2CCC[C@H]2C(=O)N[C@@H](CCCNCCCCCC(=O)NCCCC[C@H](NC(=O)[C@H](CCCNC(=N)N)NC(=O)[C@@H]2CCCN2C(=O)[C@H](CC(C)C)NC(=O)[C@H](CC(N)=O)NC(=O)[C@H](CCC(N)=O)NC(=O)[C@H](Cc2ccccc2)NC(=O)[C@@H](Cc2ccc(OC)cc2)NC(=O)Cc2ccccc2)C(N)=O)C(=O)NCC(N)=O)NC(=O)[C@H](CC(N)=O)NC(=O)[C@H](CCC(N)=O)NC1=O [Compound 9]
EC50: > 10000 nM | Emax: 34%

Compound: CC[C@H](C)[C@@H]1NC(=O)[C@H](Cc2ccccc2)NC(=O)[C@@H](O)CSSC[C@@H](C(=O)N2CCC[C@H]2C(=O)N[C@@H](CCNC(=O)[C@@H](N)CCCCNC(=O)CC[C@H](NC(=O)[C@H](CCCNC(=N)N)NC(=O)[C@@H]2CCCN2C(=O)[C@H](CCCNC(N)=O)NC(=O)[C@H](CC(N)=O)NC(=O)[C@H](CCC(N)=O)NC(=O)[C@H](Cc2ccccc2)NC(=O)[C@@H](Cc2ccc(OC)cc2)NC(=O)Cc2ccccc2)C(N)=O)C(=O)NCC(N)=O)NC(=O)[C@H](CC(N)=O)NC(=O)[C@H](CCCC(N)=O)NC1=O [Compound 48]
EC50: 1.4 nM | Emax: 67%

Compound: CC[C@H](C)[C@@H]1NC(=O)[C@H](Cc2ccccc2)NC(=O)[C@@H](N)CSSC[C@@H](C(=O)N2CCC[C@H]2C(=O)N[C@@H](CCCNC(=O)[C@@H](N)CCCCNC(=O)CC[C@H](NC(=O)[C@H](CCCNC(=N)N)NC(=O)[C@@H]2CCCN2C(=O)[C@H](CCCNC(=N)N)NC(=O)[C@H](CC(N)=O)NC(=O)[C@H](Cc2cccnc2)NC(=O)[C@H](Cc2ccccc2)NC(=O)[C@@H](Cc2ccc(OC)cc2)NC(=O)Cc2ccccc2)C(N)=O)C(=O)NCC(N)=O)NC(=O)[C@H](CC(N)=O)NC(=O)[C@H](CCC(N)=O)NC1=O [Compound 24] (I: H-CFIQNCP[Orn]G-NH2 / II: PhAc-[dY](Me)F[3Pal]NRPR[isoGln][εLys]; disulfide I:1-I:6; amide I:8-II:C)
EC50: 2.3 nM | Emax: 33%

Compound: CC[C@H](C)[C@@H]1NC(=O)[C@H](Cc2ccccc2)NC(=O)[C@@H](N)CSSC[C@@H](C(=O)N2CCC[C@H]2C(=O)N[C@@H](CCCNCCCCCNC(=O)CC[C@H](NC(=O)[C@H](CCCNC(=N)N)NC(=O)[C@@H]2CCCN2C(=O)[C@H](CCC(N)=O)NC(=O)[C@H](CC(N)=O)NC(=O)[C@H](CCC(N)=O)NC(=O)[C@H](Cc2ccccc2)NC(=O)[C@@H](Cc2ccc(OC)cc2)NC(=O)Cc2ccccc2)C(N)=O)C(=O)NCC(N)=O)NC(=O)[C@H](CC(N)=O)NC(=O)[C@H](CCC(N)=O)NC1=O [Compound 14]
EC50: 2.1 nM | Emax: 37%

Compound: CC[C@H](C)[C@@H]1NC(=O)[C@H](Cc2ccccc2)NC(=O)[C@@H](N)CSSC[C@@H](C(=O)N2CCC[C@H]2C(=O)N[C@@H](CCNC(=O)[C@@H](N)CCCCNC(=O)[C@H](CCCCN)NC(=O)CC[C@H](NC(=O)[C@H](CCCNC(=N)N)NC(=O)[C@@H]2CCCN2C(=O)[C@H](C)NC(=O)[C@H](CC(N)=O)NC(=O)[C@H](CCC(N)=O)NC(=O)[C@H](Cc2ccccc2)NC(=O)[C@@H](Cc2ccc(OC)cc2)NC(=O)Cc2ccccc2)C(N)=O)C(=O)NCC(N)=O)NC(=O)[C@H](CC(N)=O)NC(=O)[C@H](CCC(N)=O)NC1=O [Compound 41] (I: H-CFIQNCP[Dab]G-NH2 / II: PhAc-[dY](Me)FQNAPR[isoGln]K[εLys]; disulfide I:1-I:6; amide I:8-II:C)
EC50: 1.2 nM | Emax: 37%

Compound: CC[C@H](C)[C@@H]1NC(=O)[C@H](Cc2ccccc2)NC(=O)[C@@H](N)CSSC[C@@H](C(=O)N2CCC[C@H]2C(=O)N[C@@H](CCNC(=O)[C@H](N)CCCCNC(=O)CC[C@H](NC(=O)[C@H](CCCNC(=N)N)NC(=O)[C@@H]2CCCN2C(=O)[C@H](C)NC(=O)[C@H](CC(N)=O)NC(=O)[C@H](CCC(N)=O)NC(=O)[C@H](Cc2ccccc2)NC(=O)[C@@H](Cc2ccc(OC)cc2)NC(=O)Cc2ccccc2)C(N)=O)C(=O)NCC(N)=O)NC(=O)[C@H](CC(N)=O)NC(=O)[C@H](CCC(N)=O)NC1=O [Compound 39] (I: H-CFIQNCP[Dab]G-NH2 / II: PhAc-[dY](Me)FQNAPR[isoGln][d(εLys)]; disulfide I:1-I:6; amide I:8-II:C)
EC50: 1.8 nM | Emax: 48%

Compound: CC[C@H](C)[C@@H]1NC(=O)[C@H](Cc2ccccc2)NC(=O)[C@@H](N)CSSC[C@@H](C(=O)N2CCC[C@H]2C(=O)N[C@@H](CCCNCCCCCC(=O)NCCCC[C@H](NC(=O)[C@H](CCCNC(=N)N)NC(=O)[C@@H]2CCCN2C(=O)[C@H](CCCNC(=N)N)NC(=O)[C@H](CC(N)=O)NC(=O)[C@H](CCC(N)=O)NC(=O)[C@H](Cc2ccccc2)NC(=O)[C@@H](Cc2ccc(OC)cc2)NC(=O)Cc2ccccc2)C(N)=O)C(=O)NCC(N)=O)NC(=O)[C@H](CC(N)=O)NC(=O)[C@H](CCC(N)=O)NC1=O [Compound 6]
EC50: 2.5 nM | Emax: 28%
